Experimental data taken from PMC2678990, “Stilbene glycosides are natural product inhibitors of FGF-2-induced angiogenesis” (BMC Cell Biology, 2009).

Columns and labels:
HDMEC = test: FGF-2-induced proliferation; type: cell-based; conditions: Homo sapiens, FGF-2 25 ng/ml, 72 h
Protocol: Cells were seeded in triplicate at a concentration of 6.0 × 10^5/ml, in 2 ml of complete medium in 6-well plates. […] Growth factors, FGF-2 (25 ng/ml), EGF (75 ng/ml) and VEGF (10 ng/ml) and test compounds at different concentration were added and cells incubated for a further 72 h. Control wells were treated with 5 μl DMSO. Concentration ranges of test compounds and pre-incubation times were based on pilot studies. After 72 h, cells were washed in PBS, detached in 0.05%w/v trypsin in PBS, and counted on a Coulter counter (Coulter Electronics, Hialeah, FL) set to a threshold of 30 μm. Experiments were performed in triplicate and repeated at least twice.

BAEC = test: FGF-2-induced chemotaxis, Boyden chamber assay; type: cell-based, bovine; conditions: Bos taurus, 6 h, FGF-2 25 ng/ml
Protocol: The effect of compounds 1 and 2 on cell migration was examined in vitro using a modified Boyden chamber system with 8.0 μm pore polycarbonate filter inserts (TSL, UK). The filter was coated overnight with 0.1%w/v gelatine, and air-dried. Cells (1 × 10^5) were placed in the upper part of the filter and test compounds at different concentrations with and without growth factors were added to the lower part in SPM. Cells were incubated at 37°C for 6 h and the filter removed and the upper side containing non migrated cells wiped and rinsed. The filters were fixed (4% paraformaldehyde), and stained (Geimsa) and cell migration in duplicate wells was determined by counting cell numbers on the lower surface. Experiments were performed in triplicate and at least two times.

IC50 (BAEC): 30.1 ± 0.85 µM
SMILES: COc1cc(C=Cc2ccc(O)cc2)cc(OC2OC(COC3OC(C)C(O)C(O)C3O)C(O)C(O)C2OC2OC(C)C(O)C(O)C2O)c1 (centres unmarked) [Compound 1]
IC50 (HDMEC): 42 ± 0.93 µM
